Laboratory results published in US10611750B2, “Tetrahydroquinoline compositions as bet bromodomain inhibitors” (FORMA Therapeutics, Inc., priority 2013, dated 2020).

Legend:
[1] = molecular target: T1, BRD4 Bromodomain 1 (BRD4 BD1) (Homo sapiens, UniProt O60885); test: AlphaScreen binding assay, BRD4 BD1; details: His-tagged BRD4 BD1 50 nM, biotinylated H4 (1-21) K5/8/12/16 tetra-acetylated peptide 50 nM, compounds listed under IC50 range headings
T1 construct: 44-168 and BRD4 BD2
Procedure, shortened: (§1)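 An AlphaScreen competition format was used with His-BRD4 BD1 or BD2 and biotin-H4 K5/8/12/16-acetyl peptide, each at matched final levels of 50 nM (BD1) or 100 nM (BD2). Incubation in HEPES/NaCl buffer with 0.1% BSA and 0.01% Triton X-100 ran ≥1 h before IC50 determination.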

[2] = molecular target: T2, BRD4 Bromodomain 2 (BRD4 BD2) (Homo sapiens, UniProt O60885); test: AlphaScreen binding assay, BRD4 BD2; details: His-tagged BRD4 BD2 100 nM, biotinylated H4 (1-21) K5/8/12/16 tetra-acetylated peptide 100 nM, compounds listed under IC50 range headings
T2 construct: 333-460 were cloned, expressed, and purified to homogeneity
Procedure, shortened: as §1

[3] = tested on: acute myelocytic leukemia (AML) cell line MV4-11; test: Oncology cell growth assay (3-day proliferation, CellTiter-Glo); format: cell-based; details: Homo sapiens, MV4-11, 72 h, MV4-11 cells, 3000 cells/well, compounds listed under IC50 range headings, read-out: MV411 IC50 (gIC50, inhibition of proliferation)
Procedure, shortened: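 A 3-day proliferation test used MV4-11 cells seeded at 3000 per well with eight compound concentrations (10 μM top, 3-fold dilution) at 37° C in 5% CO2. CellTiter-Glo luminescence defined viable cell signal. A four-parameter logistic curve against DMSO and background wells gave the gIC50.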

SMILES: CC(=O)N1c2ccc(-c3cnn(CCO)c3)c(Oc3ncc(C(C)C)cn3)c2CC[C@@H]1C [I-545]
- IC50 [1]: 100 to 1000 nM
- IC50 [2]: < 50 nM
- IC50 [3]: < 500 nM

SMILES: COc1cnc(Oc2c(-c3cnn(CCO)c3)ccc3c2CC[C@H](C)N3C(C)=O)nc1 [I-546]
- IC50 [1]: 100 to 1000 nM
- IC50 [2]: < 50 nM
- IC50 [3]: 500 to 1000 nM

SMILES: CC(=O)N1c2ccc(-c3cnn(CCO)c3)c(Oc3ncc(C4CC4)cn3)c2CC[C@@H]1C [I-547]
- IC50 [1]: 100 to 1000 nM
- IC50 [2]: < 50 nM
- IC50 [3]: < 500 nM

SMILES: CC(=O)N1c2ccc(-c3ccc4c(c3)CCN4S(C)(=O)=O)c(Oc3ncc(F)cn3)c2CC[C@@H]1C [I-548]
- IC50 [1]: 1000 to 10000 nM
- IC50 [2]: 50 to 500 nM
- IC50 [3]: < 500 nM

SMILES: CC(=O)N1c2ccc(-c3ccc(S(C)(=O)=O)cc3)c(Oc3ncc(F)cn3)c2CC[C@@H]1C [I-549]
- IC50 [1]: 1000 to 10000 nM
- IC50 [2]: 50 to 500 nM
- IC50 [3]: 500 to 1000 nM

SMILES: CC(=O)N1c2ccc(-c3cnn(CCS(C)(=O)=O)c3)c(Oc3ncc(F)cn3)c2CC[C@@H]1C [I-550]
- IC50 [1]: 100 to 1000 nM
- IC50 [2]: < 50 nM
- IC50 [3]: < 500 nM

SMILES: CC(=O)N1c2ccc(-c3cnn(CC(C)(C)O)c3)c(Oc3ncc(F)cn3)c2CC[C@@H]1C [I-551]
- IC50 [1]: 100 to 1000 nM
- IC50 [2]: < 50 nM
- IC50 [3]: < 500 nM

SMILES: CC(=O)N1c2ccc(-c3cnn(C(C)(C)CO)c3)c(Oc3ncc(F)cn3)c2CC[C@@H]1C [I-552]
- IC50 [1]: 100 to 1000 nM
- IC50 [2]: < 50 nM
- IC50 [3]: < 500 nM

SMILES: CC(=O)N1c2ccc(-c3ccc(N4CCCS4(=O)=O)cc3)c(Oc3ncc(F)cn3)c2CC[C@@H]1C [I-553]
- IC50 [1]: 100 to 1000 nM
- IC50 [2]: < 50 nM
- IC50 [3]: < 500 nM

SMILES: COC(=O)N1c2ccc(-c3cnn(CCS(C)(=O)=O)c3)c(Oc3ccc(C(F)(F)F)cn3)c2CC[C@@H]1C [I-554]
- IC50 [1]: 1000 to 10000 nM
- IC50 [2]: 50 to 500 nM
- IC50 [3]: > 1000 nM

SMILES: COC(=O)N1c2ccc(-c3cnn(CC(C)(C)O)c3)c(Oc3ccc(C(F)(F)F)cn3)c2CC[C@@H]1C [I-555]
- IC50 [1]: 1000 to 10000 nM
- IC50 [2]: 50 to 500 nM
- IC50 [3]: > 1000 nM

SMILES: COC(=O)N1c2ccc(-c3cnn(CCO)c3)c(Oc3ccc(C(F)(F)F)cn3)c2CC[C@@H]1C [I-556]
- IC50 [1]: 1000 to 10000 nM
- IC50 [2]: 50 to 500 nM
- IC50 [3]: 500 to 1000 nM

SMILES: COC(=O)N1c2ccc(-c3cnn(C4CC4)c3)c(Oc3ccc(C(F)(F)F)cn3)c2CC[C@@H]1C [I-557]
- IC50 [1]: 1000 to 10000 nM
- IC50 [2]: 50 to 500 nM
- IC50 [3]: > 1000 nM

SMILES: COC(=O)N1c2ccc(-c3cnn(CCS(C)(=O)=O)c3)c(Oc3cnccn3)c2CC[C@@H]1C [I-558]
- IC50 [1]: 1000 to 10000 nM
- IC50 [2]: 50 to 500 nM
- IC50 [3]: > 1000 nM

SMILES: COC(=O)N1c2ccc(-c3cnn(CC(C)(C)O)c3)c(Oc3cnccn3)c2CC[C@@H]1C [I-559]
- IC50 [1]: 1000 to 10000 nM
- IC50 [2]: 50 to 500 nM
- IC50 [3]: 500 to 1000 nM

SMILES: COC(=O)N1c2ccc(-c3cnn(CCO)c3)c(Oc3cnccn3)c2CC[C@@H]1C [I-560]
- IC50 [1]: 1000 to 10000 nM
- IC50 [2]: 50 to 500 nM
- IC50 [3]: 500 to 1000 nM

SMILES: COC(=O)N1c2ccc(-c3cnn(C4CC4)c3)c(Oc3cnccn3)c2CC[C@@H]1C [I-561]
- IC50 [1]: 1000 to 10000 nM
- IC50 [2]: 50 to 500 nM
- IC50 [3]: 500 to 1000 nM

SMILES: COC(=O)N1c2ccc(-c3cnn(CCS(C)(=O)=O)c3)c(Oc3ncccc3C(F)(F)F)c2CC[C@@H]1C [I-562]
- IC50 [1]: 1000 to 10000 nM
- IC50 [2]: 50 to 500 nM
- IC50 [3]: 500 to 1000 nM

SMILES: COC(=O)N1c2ccc(-c3cnn(CC(C)(C)O)c3)c(Oc3ncccc3C(F)(F)F)c2CC[C@@H]1C [I-563]
- IC50 [1]: 1000 to 10000 nM
- IC50 [2]: < 50 nM
- IC50 [3]: > 1000 nM

SMILES: COC(=O)N1c2ccc(-c3cnn(CCO)c3)c(Oc3ncccc3C(F)(F)F)c2CC[C@@H]1C [I-564]
- IC50 [1]: 1000 to 10000 nM
- IC50 [2]: 50 to 500 nM
- IC50 [3]: 500 to 1000 nM

SMILES: COC(=O)N1c2ccc(-c3cnn(C4CC4)c3)c(Oc3ncccc3C(F)(F)F)c2CC[C@@H]1C [I-565]
- IC50 [1]: 1000 to 10000 nM
- IC50 [2]: 50 to 500 nM
- IC50 [3]: 500 to 1000 nM

SMILES: COC(=O)N1c2ccc(-c3cnn(CCS(C)(=O)=O)c3)c(Oc3ncccc3C#N)c2CC[C@@H]1C [I-566]
- IC50 [1]: 1000 to 10000 nM
- IC50 [2]: 50 to 500 nM
- IC50 [3]: > 1000 nM

SMILES: COC(=O)N1c2ccc(-c3cnn(CC(C)(C)O)c3)c(Oc3ncccc3C#N)c2CC[C@@H]1C [I-567]
- IC50 [1]: 1000 to 10000 nM
- IC50 [2]: 50 to 500 nM
- IC50 [3]: 500 to 1000 nM

SMILES: COC(=O)N1c2ccc(-c3cnn(CCO)c3)c(Oc3ncccc3C#N)c2CC[C@@H]1C [I-568]
- IC50 [1]: 1000 to 10000 nM
- IC50 [2]: 50 to 500 nM
- IC50 [3]: < 500 nM

SMILES: COC(=O)N1c2ccc(-c3cnn(C4CC4)c3)c(Oc3ncccc3C#N)c2CC[C@@H]1C [I-569]
- IC50 [1]: 1000 to 10000 nM
- IC50 [2]: 50 to 500 nM
- IC50 [3]: < 500 nM
